According to PubChem BioAssay AID248 (DTP/NCI, 2004):
Inconclusive results and toxic doses are left out. No stated cut-off is given here; in the data, active means T/C of 150% or more; inactive means T/C below 125%.

Test system: L1210 leukemia ip in BDF1 mice, survival T/C
Assay: NCI In Vivo Anticancer Drug Screen. Data for tumor model L1210 Leukemia (intraperitoneal) in B6D2F1 (BDF1) mice
Details: endpoint: mean survival time, higher = longer survival
Method in brief: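 Each compound was tested against a transplantable tumor grown in mice. The endpoint was survival, with treated animals benchmarked against vehicle controls as a simple ratio.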

[1] = dose: 100.0 mg/kg/injection, schedule: Q01DX001 (ip), vehicle: carboxymethylcellulose (CMC)
[2] = dose: 200.0 mg/kg/injection, schedule: Q01DX001 (ip), vehicle: carboxymethylcellulose (CMC)
[3] = dose: 400.0 mg/kg/injection, schedule: Q01DX001 (ip), vehicle: carboxymethylcellulose (CMC)
[4] = dose: 100.0 mg/kg/injection, schedule: Q04DX003 (ip), vehicle: saline with Tween-80
[5] = dose: 200.0 mg/kg/injection, schedule: Q04DX003 (ip), vehicle: saline with Tween-80
[6] = dose: 100.0 mg/kg/injection, schedule: Q01DX001 (ip), vehicle: Klucel (hydroxypropylcellulose) (HPC)
[7] = dose: 100.0 mg/kg/injection, schedule: Q04DX003 (ip), vehicle: Klucel (hydroxypropylcellulose) (HPC)
[8] = dose: 200.0 mg/kg/injection, schedule: Q01DX001 (ip), vehicle: Klucel (hydroxypropylcellulose) (HPC)
[9] = dose: 200.0 mg/kg/injection, schedule: Q04DX003 (ip), vehicle: Klucel (hydroxypropylcellulose) (HPC)
[10] = dose: 400.0 mg/kg/injection, schedule: Q01DX001 (ip), vehicle: Klucel (hydroxypropylcellulose) (HPC)
[11] = dose: 400.0 mg/kg/injection, schedule: Q04DX003 (ip), vehicle: Klucel (hydroxypropylcellulose) (HPC)
[12] = dose: 100.0 mg/kg/injection, schedule: Q01DX009 (ip), vehicle: saline with Tween-80
[13] = dose: 100.0 mg/kg/injection, schedule: Q01DX009 (ip), vehicle: Klucel (hydroxypropylcellulose) (HPC)
[14] = dose: 200.0 mg/kg/injection, schedule: Q01DX009 (ip), vehicle: Klucel (hydroxypropylcellulose) (HPC)
[15] = dose: 400.0 mg/kg/injection, schedule: Q01DX009 (ip), vehicle: Klucel (hydroxypropylcellulose) (HPC)

Measured: T/C

O=c1[nH]c(Nc2ccccc2)c([N+](=O)[O-])c(=O)[nH]1
inactive: dose: 9.0 mg/kg/injection, schedule: Q01DX001 (ip), vehicle: Klucel (hydroxypropylcellulose) (HPC) 98 % of control | dose: 18.0 mg/kg/injection, schedule: Q01DX001 (ip), vehicle: Klucel (hydroxypropylcellulose) (HPC) 110 % of control | dose: 37.0 mg/kg/injection, schedule: Q01DX001 (ip), vehicle: Klucel (hydroxypropylcellulose) (HPC) 101 % of control | dose: 75.0 mg/kg/injection, schedule: Q01DX001 (ip), vehicle: Klucel (hydroxypropylcellulose) (HPC) 104 % of control

COc1cc(-c2ccc(NC(=O)Nc3ccc(C4=NCCN4)cc3)c(OC)c2)ccc1NC(=O)Nc1ccc(C2=NCCN2)cc1
inactive: dose: 15.0 mg/kg/injection, schedule: Q01DX Z (ip), vehicle: carboxymethylcellulose (CMC) 104 % of control | dose: 31.0 mg/kg/injection, schedule: Q01DX Z (ip), vehicle: carboxymethylcellulose (CMC) 98 % of control | dose: 62.5 mg/kg/injection, schedule: Q01DX Z (ip), vehicle: carboxymethylcellulose (CMC) 117 % of control | dose: 125.0 mg/kg/injection, schedule: Q01DX Z (ip), vehicle: carboxymethylcellulose (CMC) 103 % of control | dose: 250.0 mg/kg/injection, schedule: Q01DX Z (ip), vehicle: water 117 % of control | dose: 500.0 mg/kg/injection, schedule: Q01DX Z (ip), vehicle: water 87 % of control

N/N=C1\c2ccccc2-c2cc([N+](=O)[O-])ccc21
inactive: [1] 104 % of control | [2] 95 % of control

CNC(=O)c1cc(NC(=O)Nc2cccc(C3=NCCN3)c2)cc(NC(=O)Nc2cccc(C3=NCCN3)c2)c1
inactive: dose: 15.0 mg/kg/injection, schedule: Q01DX Z (ip), vehicle: saline 114 % of control | dose: 30.0 mg/kg/injection, schedule: Q01DX Z (oral), vehicle: saline 103 % of control | dose: 60.0 mg/kg/injection, schedule: Q01DX Z (ip), vehicle: saline 120 % of control | dose: 60.0 mg/kg/injection, schedule: Q01DX Z (oral), vehicle: saline 119 % of control | dose: 120.0 mg/kg/injection, schedule: Q01DX Z (oral), vehicle: saline 101 % of control | dose: 240.0 mg/kg/injection, schedule: Q01DX Z (oral), vehicle: saline 95 % of control

CC(=O)Nc1nnc(Sc2n[nH]c(=O)[nH]c2=O)s1
inactive: dose: 10.0 mg/kg/injection, schedule: Q01DX001 (ip), vehicle: saline 98 % of control

Cc1cccc(NC(=O)N2CCN(c3ccccc3)CC2)c1
inactive: dose: 50.0 mg/kg/injection, schedule: Q01DX001 (ip), vehicle: carboxymethylcellulose (CMC) 106 % of control | [1] 101 % of control | [2] 101 % of control | [3] 104 % of control

O=C(O)CNCc1ccc(F)cc1
inactive: dose: 100.0 mg/kg/injection, schedule: Q01DX009 (ip), vehicle: saline 107 % of control | dose: 100.0 mg/kg/injection, schedule: Q04DX003 (ip), vehicle: saline 109 % of control | dose: 200.0 mg/kg/injection, schedule: Q01DX009 (ip), vehicle: saline 108 % of control | dose: 200.0 mg/kg/injection, schedule: Q04DX003 (ip), vehicle: saline 105 % of control | dose: 400.0 mg/kg/injection, schedule: Q01DX009 (ip), vehicle: saline 107 % of control | dose: 400.0 mg/kg/injection, schedule: Q04DX003 (ip), vehicle: saline 102 % of control

Nc1ccc(Cl)cc1-c1ccccc1
inactive: dose: 55.0 mg/kg/injection, schedule: Q01DX Z (ip), vehicle: saline 105 % of control | dose: 125.0 mg/kg/injection, schedule: Q01DX Z (ip), vehicle: saline 104 % of control

C=C(Cl)C(=O)OCC
inactive: dose: 5.0 mg/kg/injection, schedule: Q01DX009 (ip), vehicle: saline 103 % of control | dose: 5.0 mg/kg/injection, schedule: Q04DX003 (ip), vehicle: saline with Tween-80 93 % of control | dose: 10.0 mg/kg/injection, schedule: Q01DX009 (ip), vehicle: saline 98 % of control | dose: 10.0 mg/kg/injection, schedule: Q04DX003 (ip), vehicle: saline with Tween-80 95 % of control | dose: 20.0 mg/kg/injection, schedule: Q01DX009 (ip), vehicle: saline 104 % of control | dose: 20.0 mg/kg/injection, schedule: Q04DX003 (ip), vehicle: saline with Tween-80 95 % of control

c1ccc(-c2nnn(-c3ccccc3)n2)cc1
inactive: [4] 94 % of control | [5] 93 % of control | dose: 400.0 mg/kg/injection, schedule: Q04DX003 (ip), vehicle: saline with Tween-80 98 % of control

CCCCCCCCCCCCCCCCNS(=O)(=O)c1ccc(Br)cc1
inactive: [6] 96 % of control | [7] 91 % of control | [8] 93 % of control | [9] 95 % of control | [10] 96 % of control | [11] 103 % of control

O=c1[nH]c2cc([N+](=O)[O-])ccc2c2ccc(Cl)cc12
inactive: [1] 102 % of control | [2] 91 % of control | [3] 95 % of control

CC[C@@]1(O)C(=O)OCc2c1cc1n(c2=O)Cc2cc3ccccc3[n+]([O-])c2-1
inactive: dose: 1.0 mg/kg/injection, schedule: Q01DX015 (ip), vehicle: saline 112 % of control | dose: 8.0 mg/kg/injection, schedule: Q01DX015 (ip), vehicle: saline 86 % of control | dose: 12.5 mg/kg/injection, schedule: Q01DX001 (ip), vehicle: saline 115 % of control

COc1ccc(C(=O)OCc2ccccc2CN2CCOCC2)cc1
inactive: dose: 100.0 mg/kg/injection, schedule: Q04DX002 (ip), vehicle: Klucel (hydroxypropylcellulose) (HPC) 95 % of control | dose: 200.0 mg/kg/injection, schedule: Q04DX002 (ip), vehicle: Klucel (hydroxypropylcellulose) (HPC) 95 % of control | dose: 400.0 mg/kg/injection, schedule: Q04DX002 (ip), vehicle: Klucel (hydroxypropylcellulose) (HPC) 95 % of control

N#CC1c2ccccc2C=CN1C(=O)CCBr (configuration not stated)
inactive: [12] 112 % of control | dose: 200.0 mg/kg/injection, schedule: Q01DX009 (ip), vehicle: saline with Tween-80 102 % of control | dose: 400.0 mg/kg/injection, schedule: Q01DX009 (ip), vehicle: saline with Tween-80 96 % of control

O=[N+]([O-])c1ccc(OCCO)c([N+](=O)[O-])c1
inactive: dose: 50.0 mg/kg/injection, schedule: Q04DX003 (ip), vehicle: saline with Tween-80 104 % of control | [4] 104 % of control | [5] 103 % of control

O=C(CC(=O)c1cccc(NC(=O)CC(/C=C/C=C/CCCCCCCCCCCCCCCCC2CC(=O)OC2=O)C(=O)O)c1)Nc1ccccc1 (configuration not stated)
inactive: dose: 75.0 mg/kg/injection, schedule: Q04DX003 (ip), vehicle: Klucel (hydroxypropylcellulose) (HPC) 94 % of control | [6] 90 % of control | dose: 150.0 mg/kg/injection, schedule: Q04DX003 (ip), vehicle: Klucel (hydroxypropylcellulose) (HPC) 95 % of control | [8] 90 % of control | dose: 300.0 mg/kg/injection, schedule: Q04DX003 (ip), vehicle: Klucel (hydroxypropylcellulose) (HPC) 103 % of control | [10] 87 % of control

O=c1c2ccccc2sc2c1ccc1ccccc12
inactive: [7] 100 % of control | [9] 103 % of control | [11] 96 % of control

Ic1ccc(/C=C2\C=Cc3ccccc32)cc1
inactive: [1] 100 % of control | [2] 100 % of control | [3] 100 % of control

CNC(=O)NNC(=O)CNC(=O)Nc1ccc(Cl)c(Cl)c1
inactive: [13] 106 % of control | [14] 93 % of control | [15] 97 % of control

O=C(Nc1cc(S(=O)(=O)F)ccc1Cl)c1ccc2ccccc2c1O
inactive: [13] 97 % of control | [7] 91 % of control | [14] 101 % of control | [9] 98 % of control | [15] 95 % of control | [11] 104 % of control

Nc1scc2[nH]c3ccccc3[n+]12
inactive: dose: 100.0 mg/kg/injection, schedule: Q04DX002 (ip), vehicle: saline 100 % of control | dose: 200.0 mg/kg/injection, schedule: Q04DX002 (ip), vehicle: saline 104 % of control

CCCCCCCCCCOB(OCCCCCCCCCC)OCCCCCCCCCC
inactive: dose: 25.0 mg/kg/injection, schedule: Q01DX009 (ip), vehicle: saline with Tween-80 93 % of control | dose: 50.0 mg/kg/injection, schedule: Q01DX009 (ip), vehicle: saline with Tween-80 96 % of control | [12] 96 % of control
